According to patent US7462695B2, “Insect chymotrypsin and inhibitors thereof” (Hexima Limited, priority 2003, dated 2008):

How the values were obtained:
[1] = tested on: chymotrypsin activity in unfractionated gut extracts from H. punctigera; assay: Chymotrypsin activity in unfractionated gut extracts with proteinase inhibitors (FIG. 3); assay type: biochemical, Helicoverpa punctigera; details: larvae raised on haricot bean diet without added proteinase inhibitors; substrate SAAPFpNA
Experimental: FIG. 3 is a graphical representation showing the effect of various proteinase inhibitors on the chymotrypsin activity in unfractionated gut extracts from H. punctigera. Proteinase inhibitors were mixed with 1 μg of protein from an unfractionated gut extract before incubation with the chymotrypsin substrate N-succinyl-Ala-Ala-Pro-Phe-p-nitroanilide. Inhibition is expressed as a percentage of the total activity in the control samples.
Fourth-instar larvae were killed using ethyl-acetate prior the removal of individual gut which were then homogenized in a mortar and pestle in an equal amount [(w/v)] of 50 mM Tris-HCl, pH 8.0 containing 100 μM benzamidine. Insoluble material was removed by centrifugation at 20,000 rpm for 15 min at 4° C. and total protein concentration determined using the Bradford method (Bradford, Anal Biochem 72: 248-254, 1976) with reagents from BioRad and BSA as a standard.
Unfractionated gut extract containing approximately 1 μg of buffer soluble protein was added to 10 μL CAPS buffer (0.5 M, 3-[cyclohexylamino]-1-propane-sulfonic acid, pH 10) and made to a final volume of 100 μL in individual wells of a 96 well microtiter plate. Proteinase inhibitors were added over a range of concentrations and incubated for 15 min at 25° C. Bovine chymotrypsin (100 ng) was used as a positive control, both for activity and inhibition. The chromogenic artificial substrate SAAPFpNA (N-Succinyl-L-alanyl-L-alanyl-L-prolyl-L-phenylalanine 4-nitroanilide) was then added to a final concentration of 1 mM and hydrolysis of the substrate was measured at 405 nm using the SpectraMax 250 microtiter plate reader (Molecular Devices).

[2] = tested on: chymotrypsin activity in gut extracts of H. punctigera larvae; assay: Inhibition of chymotrypsin activity in individual larval gut extracts (FIG. 2F); assay type: biochemical, Helicoverpa punctigera
Description: (§1) FIG. 2 is a graphical representation showing growth of H. punctigera larvae fed on either low protein haricot bean artificial diet or cotton leaf artificial diet, in the presence or absence of 0.26% (w/v) NaPIs. Weight gain (mg) was monitored for 21 days. […] (A) Growth of larvae. (B) Relative size of larvae at 21 days after feeding on cotton artificial diet, in the presence or absence of 0.26% NaPIs. […] (C) The effect of NaPIs on gut trypsin and chymotrypsin activity. When each H. punctigera larva reached the late fourth/early fifth instar stage of development, the gut was removed and gut extract prepared prior to assays for trypsin and chymotrypsin activity. […] Trypsin activity was determined using BApNA substrate and chymotrypsin activity with SAAPFpNA substrate. Units of activity are expressed as change in absorbance at 405 nm/min/mg gut extract protein (±standard deviation). […] Trypsin activity was determined using BApNA substrate and chymotrypsin activity with SAAPFpNA substrate. Units of activity are expressed as change in absorbance at 405 nm/min/mg faecal extract protein (±standard deviation). […] Frass extracts were analysed on 15% ((w/v)) SDS-PAGE and transferred to nitrocellulose. […] Units of activity are expressed as substrate hydrolysis at 405 nm/min/mg extract protein (±standard deviation). […] Trypsin activity was determined using BApNA substrate. […]

bovine chymotrypsin = bovine chymotrypsin (Bos taurus, UniProt P00766); assay: Inhibition of bovine chymotrypsin; assay type: biochemical; details: at maximum concentration tested; 100 ng bovine chymotrypsin; pH 10
Experimental: Several proteinase inhibitors were tested for their ability to inhibit the activity of the insensitive chymotrypsins. The buffer used for all assays was 500 mM CAPS, 75 mM NaCl, 2.5 mM MgCl2 at pH 10.

[3] = tested on: trypsin activity in gut extracts of H. punctigera larvae; assay: Inhibition of trypsin activity in individual larval gut extracts by T1 (FIG. 2F); assay type: biochemical, Helicoverpa punctigera; details: 80 nM inhibitor; BApNA substrate
Description: as §1

H. armigera larvae = assay: Bioassay of H. armigera larvae on transgenic cotton expressing NaPI and StPotIA (FIG. 27); assay type: in vivo, Helicoverpa armigera
Experimental: FIG. 27 is a graphical representation showing growth of H. armigera larvae on transgenic cotton expressing NaPI and PotI. Transgenic cotton cv Coker 315 was used in bioassays with H. armigera. Thirty larvae were fed leaves of either the control untransformed Coker 315, transgenic line 1 (NaPI), transgenic line 2 (StpotIA) or transgenic plant 3 (NaPI×StPot1A). The weight of the larvae was measured at day 7 post-egg hatch. (A) Growth of larvae. At day 7, larvae fed leaves expressing NaPI were 86% of the weight of the control larvae fed untransformed leaves. Larvae fed leaves expressing StPotIA were 92% of the control and larvae fed leaves expressing both NAPI and StPotIA were 46% of the control. (B) The effect of ingestion of NAPI and PotI on gut trypsin and chymotrypsin activity. Gut from the larvae in each experiment were pooled and extracts prepared. All assays were performed in duplicate. Trypsin activity (black) was determined using BApNA substrate and chymotrypsin activity (grey) with SA2PFpNA substrate. Units of activity are expressed as change in absorbance at 405 nm/min/ug gut extract protein. Trypsin activity was reduced, relative to the control, in the extracts from larvae fed leaves expressing NaPI and NaPI+StPotIA. Chymotrypsin activity was elevated in extracts from larvae fed leaves expressing NAPI or NAPI+StPotIA and reduced in extracts from larvae fed StPotIA alone.
Two gene constructs (pHEX2 and pHEX6) were prepared for transformation of cotton (Gossypium hirsutum). pHEX2 consists of a 35S promoter driving the NaPI gene with a 35S terminator, inserted into the binary vector pBIN 19 (Bevan, Nucl. Acids Research, 12: 8711-8721, 1984). pHEX6 consists of a 35S promoter driving the StPotIA gene with a 35S terminator inserted into the binary vector pBIN 19.
Transgenic cotton was produced using the method of Umbek et al., Biotechnology, 5: 263-266, 1987) with modifications. Hypocotyl sections of cotton Cv Coker 315 were co-cultivated with Agrobacterium tumefaciens strain LBA 4404 containing the required binary vector. […]

[4] = tested on: NaPI-insensitive chymotrypsins from H punctigera; assay: Inhibition of NaPI-insensitive chymotrypsins by StPotIA and StPotIB (FIG. 26); assay type: biochemical, Helicoverpa punctigera
Experimental: FIG. 26 is a graphical representation showing inhibition of NaPI-insensitive chymotrypsin by bacterially expressed StPotIA and StPotIB. Inhibition of the NAPI-insensitive chymotrypsin from the gut of H. punctigera with purified PotI. (A) substrate SA2PFpNA, development time 30 min, (B) substrate SA2PLpNA, 30 min incubation. Mix of PotI isoforms from potato tuber (circle), StPotIA (square), StPotIB (triangle).
The inhibitory activity of StPotIA and StPotIB against the NaPI-insensitive chymotrypsins from H punctigera was determined by preincubating the NaPI-insensitive protease (10 μL) with varying amounts of StPotIA and StPotIB (0-600 nM) in 133 mM CAPS buffer, pH 10.0 at 30° C. in 96 well microtitre plates. After the 30 min preincubation, the incubation was started by the addition of substrate (SA2PFpNA, SA2PLpNA or SA2PMpNA) to a final concentration of 1 mM in a final volume of 100 μL. Absorbance was measured at 405 nm after 30 or 60 min.

For “C1: 6 kDa chymotrypsin inhibitor monomer released from the N. alata PI precursor (SEQ ID NO:23) (DRICTNCCAGTKGCKYFSDDGTFVCEGESDPRNPKACTLNCDPRIAYGVCPRSEEKKN; listed as Nicotiana alata)”, the “inhibition of gut chymotrypsin activity” value [1] was 70% and the “inhibition of chymotrypsin activity, extracts of control larvae (in words)” value ([2]; 80 nM inhibitor, SAAPFpNA substrate) was “did not inhibit chymotrypsin activity in the extracts of six control larvae and only partially inhibited the gut chymotrypsins in the rest of the controls”.

In the case of CC(C)C[C@H](NC(=O)[C@@H](NC(=O)N[C@@H](Cc1ccccc1)C(=O)O)[C@@H]1CCN=C(N)N1)C(=O)N[C@H](C=O)Cc1ccccc1 [Chymostatin, reference compound], the “% Inhibition BC” value (bovine chymotrypsin) is reported as 100%, the “inhibition of gut chymotrypsin activity (in words)” value [1] is reported as “totally inhibited” and the “inhibition of chymotrypsin activity, extracts from control and NaPI-fed larvae” value ([2]; pre-incubated with 80 nM) is reported as “all chymotrypsin activity was abolished”.

“T1: 6 kDa trypsin inhibitor monomer released from the N. alata PI precursor (SEQ ID NO:24) (DRICTNCCAGTKGCKYFSDDGTFVCEGESDPRNPKACPRNCDPRIAYGICPLAEEKKN; listed as Nicotiana alata)” was tested, and the “inhibition of trypsin activity, extracts from NaPI-fed larvae” value [3] was “could not be inhibited” and the “inhibition of trypsin activity, extracts of control larvae” value [3] was “almost totally inhibited”.

B1: StPotIA: PotI homolog cloned from wounded potato leaf RNA, alanine at P1 site (SEQ ID NO:81); E. coli expressed, His-tagged (protein)
chain: MESKFAHIIVFFLLATSFETLMARKEGDGSEVIKLLKESESESWCKGKQFWPELIGVPTKLAKEIIEKENPSINDVPIILNGTPVPADFRCNRVRLFDNILGDVVQIPRVA
modifications: His tag; potato
notes: E. coli expressed, His-tagged
B1 was tested, and the “larval weight as % of control larvae fed untransformed leaves” value (H. armigera larvae; day 7 post-egg hatch, protein expressed in transgenic cotton leaves) was 92%, the “effect on larval growth compared to the control (in words)” value (H. armigera larvae; expression in cotton leaves) was “small inhibition of larval growth” and the gut chymotrypsin activity (H. armigera larvae; pooled gut extracts, SA2PFpNA) was “reduced”. The “inhibition of the NaPI-insensitive chymotrypsin (in words)” value [4] was “good inhibitors” and the “inhibition of SA2PMpNA hydrolysis” value ([4]; substrate SA2PMpNA) was 40%.
